Source: patent publication US9206137B2, “N-Aryl pyrazole(thio)carboxamides” (BAYER INTELLECTUAL PROPERTY GMBH, priority 2010, dated 2015)

Tested on: Sphaerotheca fuliginea
Assay: Sphaerotheca test (cucumber)/preventive
Assay type: in vivo
Details: preventive
Text: One day after this treatment, the plants are inoculated with an aqueous spore suspension of Sphaerotheca fuliginea.

Cc1ccccc1-c1ccccc1NC(=O)c1c(C(F)F)nn(C)c1F [102 from WO-2007/006806, 3-(difluoromethyl)-5-fluoro-1-methyl-N-(2′-methylbiphenyl-2-yl)-1H-pyrazole-4-carboxamide]
efficacy (Table A, dose 500 ppm): 20%
efficacy (500 ppm of active ingredient, evaluated 7 days after inoculation): less than 20%
